These results are taken from patent publication EP0741709B1, “AROMATIC 2-AMINO-IMIDAZOLE DERIVATIVES AS ALPHA-2A ADRENOCEPTOR AGONISTS” (Allergan Sales, Inc., priority 1994, dated 1995).

The target in this experiment is T1, human α2C (Homo sapiens, UniProt P18825).
T1 construct: expressed in transfected cells; host or cells: CHO (CHO-C4)
T1 sequence (P18825 1-462): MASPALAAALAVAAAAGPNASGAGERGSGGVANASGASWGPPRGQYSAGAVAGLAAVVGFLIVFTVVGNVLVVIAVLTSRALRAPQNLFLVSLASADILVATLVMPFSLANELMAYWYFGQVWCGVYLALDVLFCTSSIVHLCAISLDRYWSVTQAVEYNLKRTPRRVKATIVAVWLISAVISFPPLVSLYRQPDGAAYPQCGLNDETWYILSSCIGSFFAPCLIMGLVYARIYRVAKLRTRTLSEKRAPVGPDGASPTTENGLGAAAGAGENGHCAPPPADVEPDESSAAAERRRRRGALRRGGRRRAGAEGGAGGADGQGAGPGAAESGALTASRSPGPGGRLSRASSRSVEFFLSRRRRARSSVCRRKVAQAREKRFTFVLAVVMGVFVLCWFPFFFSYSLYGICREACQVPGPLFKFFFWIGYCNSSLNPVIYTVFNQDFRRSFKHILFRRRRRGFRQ
Put plainly: Receptor binding assay, [3H]rauwolscine, CHO-C4 cell membranes. The following applies: 22°C, 30 minutes. How it is done:
Cell preparation: Chinese hamster ovary (CHO) cells expressing the human α2A and human α2C (CHO-C10 and CHO-C4 respectively) receptors and CHO cells (CHO-RNG) expressing the rat α2B adrenoceptor were grown to near confluence in Dulbecco's modified Eagle's medium supplemented with 10% fetal bovine serum using standard cell culture methods. Cells were harvested by scraping and placed into cold buffer of the following composition: 50 mM Tris-HCl, 5 mM EDTA, pH 7.4). Cells were then homogenized with a Polytron homogenizer for 2 X 10 sec at setting #7, and centrifuged for 20 minutes at 49,000 x g. The pellet fraction was washed (resuspended in Tris-HCl, pH 8 buffer and centrifuged for 15-20 minutes at 49,000 x g) 2 times and stored at -100°C until binding assay.
Binding Studies: The radioligands [^3H]rauwolscine (specific activity 80 Ci/mmol) and [^3H]prazosin (specific activity 76 Ci/mmol) were obtained from New England Nuclear, Boston, MA. Frozen membrane pellet was resuspended in 25 mM glycine/glycine, pH 7.5 and incubated with radioligand under the following conditions: CHO-C10, CHO-RNG, CHO-C4-[^3H]rauwolscine, 22°C, 30 minutes; RKC-[^3H]rauwolscine, 0°C, 120 minutes; and, HCC-[^3H]prazosin, 22°C, 30 minutes in a final volume of 500 ul. At the end of the incubation period, the samples were filtered through glass filters (Whatman GF/B) in a 96 well cell harvester and rapidly washed four times with 4 mL of iced-cold 50 mM Tris-HCl buffer. The filters were then oven dried and transferred to scintillation vials containing 10 mL of Beckman's Ready Protein® scintillation cocktail for counting. Specific binding defined by 10 uM phentolamine for competition studies were as follows: 2.4 nM [^3H]brimonidine-RbICB 62%; 2.4 nM [^3H]rauwolscine-RbICB 75%; 2 nM [^3H]rauwolscine-RbKc 88%; 0.3 nM [^3H] rauwolscine-CHO-C10 99%; 0.4 nM [^3H]rauwolscine-CHO-RNG 99%, 0.3 nM [^3H]prazosin 87%; and 1 nM [^3H]rauwolscine-CHO-C4 90%. Protein concentrations were determined with a protein assay kit from Bio Rad. Binding isotherms, equilibrium dissociation and affinity constants were analyzed and determined by the non-linear least squares curve fitting programs EBDA (BioSoft) or AccuFit Competition/Saturation by Beckman.
The radioligands [^3H)rauwolscine (specific activity 80 Ci/mmol) and [^3H]prazosin (specific activity 76 Ci/mmol) were obtained from New England Nuclear, Boston, MA. Frozen membrane pellet was resuspended in 25 mM glycine/glycine, pH 7.4 and incubated with radioligand under the following conditions: CHO-C10, CHO-RNG, CHO-C4-[^3H]rauwolscine, 22°C, 30 min.; and, HCC-[^3H]prazosin, 22°C, 30 minutes in a final volume of 500 ul. At the end of the incubation period, the samples were filtered through glass fiber filters (Whatman GF/B) in a 96 well cell harvester and rapidly washed four times with 4 mL of iced-cold 50 mM Tris-CHl buffer. The filters were then oven dried and transferred to scintillation vials containing 5 mL of Beckman's Ready Protein® scintillation cocktail for counting. Specific binding defined by 10 uM phentolamine for competition studies were as follows: 0.3 nM[^3H] rauwolscine-CHO-C10 99%; 0.4 nM [^3H]rauwolscine-CHO-RNG 99%, and 0.3 nM [^3H] prazosin-HCC 87%. Protein concentrations were determined with a protein assay kit from Bio Rad. Binding isotherms, equilibrium dissociation and affinity constants were analyzed and determined by the non-linear least squares curve fitting programs AccuFit Competition/Saturation by Beckman.
Broadly, the Ki is a measure of affinity in units of concentration, obtained from inhibition or displacement. On to `Clc1cccc(Cl)c1Nc1ncc[nH]1`, for which the inhibition constant Ki amounted to 1120 nM. This lies in the single-digit micromolar range.

The molecule `Brc1ccccc1Nc1ncc[nH]1` showed a Ki of 2390 nM.

As to `Clc1ccccc1Nc1ncc[nH]1`, the affinity corresponds to a Ki of 2250 nM.

The molecule `COc1ccc(Nc2ncc[nH]2)c(C)c1` had a Ki of 512 nM.

The molecule `c1ccc(Nc2ncc[nH]2)cc1` yielded a Ki of 3240 nM.

For the molecule `Cc1ccccc1Nc1ncc[nH]1`, the Ki came out at 577 nM.

On to `Cc1c(Nc2ncc[nH]2)ccc2c1NCCO2`, for which the Ki stood at 229 nM.

In turn, `c1cc2c(c(Nc3ncc[nH]3)c1)CCCC2` yielded a Ki of 252 nM.

Molecule `Cc1c(Nc2ncc[nH]2)ccc2c1OCCO2` displayed a Ki of 19 nM.

`Brc1c(Nc2ncc[nH]2)ccc2nccnc12` yielded a Ki of 9670 nM.
